In US10856562B2, “Flavor composition and edible compositions containing same” (MARS, INCORPORATED, priority 2013, dated 2020):
Entries after “also recorded” stand apart in the source; their conditions may differ. Square brackets hold non-standard residues; d marks the D form. Ends that are not written are not given here. pGlu = O=C1CC[C@@H](C(=O)O)N1

Key:
[1] = system: panelists; experiment: Increased salt perception protocol: salt 5 reference (0.35% salt solution) re-tasted after expectoration of test sample; type: in vivo, human; details: for Astringent, after-expectoration perception / Bitter, after-expectoration perception / Flinty/Mineral, after-expectoration perception / Metallic, after-expectoration perception / Numbing, after-expectoration perception / Salt, after-expectoration perception (mean salt perception after expectoration) / Sour, after-expectoration perception / Sweet, after-expectoration perception: salt 5 reference re-tasted, mean score
From the text: 1. Each panelist tasted a salt reference (0.35% salt solution) with a reference salt intensity of 5.0 which provided a baseline for each panelist for salt intensity. 2. Each panelist tasted a test sample (0.1 ppb, 0.5 ppb, 1.0 ppb, 10.0 ppb or 40.0 ppb all in 0.2% NaCl solution). Only one sample was tasted per session. 3. Each panelist re-tasted the salt reference (5.0 intensity) and rated it for salt intensity as well as any other basic taste, chemical feeling factor, or aromatic perceived. Thus, any increased salt perception as a result of the test sample would be determined, as well as any other perceptions present. Attribute Perception Protocol • The panelists evaluated each sample using the following procedure • Descriptive Profiles (flavor and chemical feeling factors) of 5 levels of salt enhancing solutions • Individual data was collected for the flavor and chemical feeling factors of the product in-mouth • Increased Salt Perception Protocol • Each panelist tasted salt 5 reference (0.35% salt solution)—to ground themselves on salt intensity of 5.0. • Each panelist tasted the test sample (0.1 ppb, 0.5 ppb, 1.0 ppb, 10.0 ppb or 40.0/50.0 ppb all in 0.2% NaCl solution: only one per session) • Each panelist then re-tasted the salt 5 reference and rated it for salt intensity as well as any other basic taste, chemical feeling factor, or aromatic perceived. This captured any increased salt perception indicated by the test sample as well as any other perceptions present. • Return to Baseline Protocol • After evaluating the sample for salt & other perceptions, panelists re-tasted the salt 5 reference at 1 minute intervals until their perception of the salt 5 saltiness intensity had returned to 5.0. Each panelist recorded their salt intensity at each interval and took qualitative notes on other perceptions seen in aftertaste. Sample Preparation

[2] = system: panel of trained tasters; experiment: Saltiness of 25% sodium-reduced food products with peptides, panel of trained tasters; type: in vivo, human
Procedure: Food product compositions were prepared by admixing flavor composition peptide(s) of the present application with food compositions, wherein the level of sodium (NaCl) in the food product compositions was reduced. The level of sodium was reduced by 25%, 50% or 75% compared to food products compositions that were not admixed with flavor composition peptides. The food product compositions comprising the flavor composition peptides were tasted by a panel of trained tasters and the level of saltiness was compared to the control food products.
The peptides pGlu-Val-Leu (identified as “SE-13”), pGlu-Val-Cys (identified as “UE-30”), pGlu-Val-Val (identified as “SE-17”) and pGlu-Cys-Cys (identified as “FE-37”) were tested in cottage cheese, tortilla chips, ketchup, cream of mushroom soup, alfredo sauce, sausage, mixed nuts, peanuts, soy sauce and chicken broth. The level of sodium in the test food products comprising the peptides was reduced by 25% compared to the control food products.

With [pGlu]-Val-Val [SE-17] the “Astringent, after-expectoration perception” value ([1]; 0.1 ppb in 0.2% NaCl) was 0.0, the “Bitter, after-expectoration perception” value ([1]; 0.1 ppb in 0.2% NaCl) was 0.0 and the “Flinty/Mineral, after-expectoration perception” value ([1]; 0.1 ppb in 0.2% NaCl) was 0.6. For the same substance, the “Metallic, after-expectoration perception” value ([1]; 0.1 ppb in 0.2% NaCl) was 0.0, the “Numbing, after-expectoration perception” value ([1]; 0.1 ppb in 0.2% NaCl) was 0.0 and the “Salt, after-expectoration perception (mean salt perception after expectoration)” value (shortened to “Salt, after-expectoration perception”) ([1]; 0.1 ppb in 0.2% NaCl) was 7.3. For the same substance, the “Sour, after-expectoration perception” value ([1]; 0.1 ppb in 0.2% NaCl) was 0.0, the “Sweet, after-expectoration perception” value ([1]; 0.1 ppb in 0.2% NaCl) was 0.0 and the “Level of the aromatics, basic tastes and chemical feeling factors after expectoration with increasing concentration” value ([1]; 0.1 to 40.0/50.0 ppb) was “do not increase”. For the same substance, the “Salt perception after expectoration as the concentration increases” value ([1]; 0.1 to 40.0/50.0 ppb in 0.2% NaCl) was “does not increase notably; also recorded: Does not show a notable increase”, the “Astringent, after-expectoration perception” value ([1]; 0.5 ppb in 0.2% NaCl) was 0.0 and the “Bitter, after-expectoration perception” value ([1]; 0.5 ppb in 0.2% NaCl) was 0.0. For the same substance, the “Flinty/Mineral, after-expectoration perception” value ([1]; 0.5 ppb in 0.2% NaCl) was 0.7, the “Metallic, after-expectoration perception” value ([1]; 0.5 ppb in 0.2% NaCl) was 0.2 and the “Numbing, after-expectoration perception” value ([1]; 0.5 ppb in 0.2% NaCl) was 0.0. For the same substance, the “Salt, after-expectoration perception” value ([1]; 0.5 ppb in 0.2% NaCl) was 8.1, the “Sour, after-expectoration perception” value ([1]; 0.5 ppb in 0.2% NaCl) was 0.0 and the “Sweet, after-expectoration perception” value ([1]; 0.5 ppb in 0.2% NaCl) was 0.0. For the same substance, the “Astringent, after-expectoration perception” value ([1]; 1.0 ppb in 0.2% NaCl) was 0.0, the “Bitter, after-expectoration perception” value ([1]; 1.0 ppb in 0.2% NaCl) was 0.0 and the “Flinty/Mineral, after-expectoration perception” value ([1]; 1.0 ppb in 0.2% NaCl) was 0.5. The “Metallic, after-expectoration perception” value ([1]; 1.0 ppb in 0.2% NaCl) was 0.0, the “Numbing, after-expectoration perception” value ([1]; 1.0 ppb in 0.2% NaCl) was 0.0 and the “Salt, after-expectoration perception” value ([1]; 1.0 ppb in 0.2% NaCl) was 7.3. The “Sour, after-expectoration perception” value ([1]; 1.0 ppb in 0.2% NaCl) was 0.0, the “Sweet, after-expectoration perception” value ([1]; 1.0 ppb in 0.2% NaCl) was 0.0 and the “Astringent, after-expectoration perception” value ([1]; 10.0 ppb in 0.2% NaCl) was 0.0. The “Bitter, after-expectoration perception” value ([1]; 10.0 ppb in 0.2% NaCl) was 0.0, the “Flinty/Mineral, after-expectoration perception” value ([1]; 10.0 ppb in 0.2% NaCl) was 0.3 and the “Metallic, after-expectoration perception” value ([1]; 10.0 ppb in 0.2% NaCl) was 0.0. For the same substance, the “Numbing, after-expectoration perception” value ([1]; 10.0 ppb in 0.2% NaCl) was 0.0, the “Salt, after-expectoration perception” value ([1]; 10.0 ppb in 0.2% NaCl) was 7.2 and the “Sour, after-expectoration perception” value ([1]; 10.0 ppb in 0.2% NaCl) was 0.0. For the same substance, the “Sweet, after-expectoration perception” value ([1]; 10.0 ppb in 0.2% NaCl) was 0.0, the “Astringent, after-expectoration perception” value ([1]; 50.0 ppb in 0.2% NaCl) was 0.0 and the “Bitter, after-expectoration perception” value ([1]; 50.0 ppb in 0.2% NaCl) was 0.0. For the same substance, the “Flinty/Mineral, after-expectoration perception” value ([1]; 50.0 ppb in 0.2% NaCl) was 0.4, the “Metallic, after-expectoration perception” value ([1]; 50.0 ppb in 0.2% NaCl) was 0.0 and the “Numbing, after-expectoration perception” value ([1]; 50.0 ppb in 0.2% NaCl) was 0.0. For the same substance, the “Salt, after-expectoration perception” value ([1]; 50.0 ppb in 0.2% NaCl) was 7.7, the “Sour, after-expectoration perception” value ([1]; 50.0 ppb in 0.2% NaCl) was 0.0 and the “Sweet, after-expectoration perception” value ([1]; 50.0 ppb in 0.2% NaCl) was 0.0. For the same substance, the “Umami like swelling of lips and tongue, after expectoration” value ([1]; all levels) was “Panelists also experience Umami like swelling of lips and tongue”, the “Salt perception from in-mouth to after expectoration” value ([1]; all samples, 0.1 to 40.0/50.0 ppb) was “increases after expectoration (from in-mouth) in all samples; also recorded: noticeable increase” and the “Saltiness compared to control” value ([2]; Chicken Broth, control 860 mg, test 645 mg Na, 10 ppb each, n=4) was “Test samples saltier than”. The “Saltiness/flavor compared to control” value ([2]; Cottage Cheese, control 350 mg, test 262 mg Na, 10 ppb each, n=4) was “Test samples notably less” and the “Preference among test samples” value ([2]; Cottage Cheese, test 262 mg Na, compared to SE-13 and SE-13 + UE-30) was “combination preferred”.
